Tests used:
α1β3γ2L GABAA receptors [1] = molecular target: T1, α1β3γ2L GABAA receptors (Homo sapiens, UniProt P14867+P18507+P28472); format: cell-based; conditions: for IC50: IC50 for antagonizing direct activation by 20 μM etomidate in the presence of flumazenil, [Benzodiazepine]:[Flumazenil] = 1:2
α1β3γ2L GABAA receptors [2] = molecular target: T1, α1β3γ2L GABAA receptors; format: cell-based
GABAA receptor = conditions: cited from earlier work
α1β3γ2L GABAA receptors [3] = molecular target: T1, α1β3γ2L GABAA receptors; format: cell-based; remark: listed apart in the source
zebrafish larvae = experiment: Zebrafish larvae photomotor response; format: in vivo, Danio rerio; conditions: for EC50: Danio rerio, read-out: EC50 for abolishing zebrafish larvae motor responses to a light stimulus
[4] = molecular target: purified α1β3γ2L GABAA receptors (Homo sapiens, UniProt P14867+P18507+P28472); experiment: Inhibition of R-[3H]azietomidate photoaffinity labeling of purified receptors; conditions: at up to 300 μM
purified GABAA receptors = conditions: cited from earlier work

T1 sequence (P14867 28-456): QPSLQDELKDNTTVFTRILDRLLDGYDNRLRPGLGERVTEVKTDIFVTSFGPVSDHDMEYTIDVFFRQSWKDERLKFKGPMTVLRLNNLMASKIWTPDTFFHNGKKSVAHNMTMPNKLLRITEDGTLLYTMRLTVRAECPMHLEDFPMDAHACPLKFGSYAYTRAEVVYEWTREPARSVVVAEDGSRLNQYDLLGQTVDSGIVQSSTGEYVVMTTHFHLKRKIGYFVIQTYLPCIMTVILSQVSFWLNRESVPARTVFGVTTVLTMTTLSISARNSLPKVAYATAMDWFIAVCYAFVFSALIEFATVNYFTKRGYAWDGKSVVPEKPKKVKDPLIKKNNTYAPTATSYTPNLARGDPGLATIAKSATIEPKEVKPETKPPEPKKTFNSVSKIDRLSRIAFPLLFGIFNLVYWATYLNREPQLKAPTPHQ
T1 sequence (P28472 26-473): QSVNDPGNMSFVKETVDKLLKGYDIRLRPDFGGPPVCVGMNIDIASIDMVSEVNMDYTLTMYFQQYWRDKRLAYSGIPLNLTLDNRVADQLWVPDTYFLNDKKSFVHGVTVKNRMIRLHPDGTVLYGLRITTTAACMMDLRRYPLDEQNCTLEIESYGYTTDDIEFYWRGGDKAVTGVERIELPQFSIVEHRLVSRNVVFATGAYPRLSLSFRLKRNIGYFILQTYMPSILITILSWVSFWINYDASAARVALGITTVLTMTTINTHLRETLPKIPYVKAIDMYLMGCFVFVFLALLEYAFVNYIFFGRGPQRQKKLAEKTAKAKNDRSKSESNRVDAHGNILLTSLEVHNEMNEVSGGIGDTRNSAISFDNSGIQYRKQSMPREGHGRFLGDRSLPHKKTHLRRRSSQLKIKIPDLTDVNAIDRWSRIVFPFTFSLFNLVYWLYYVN
T1 sequence (P18507 40-475): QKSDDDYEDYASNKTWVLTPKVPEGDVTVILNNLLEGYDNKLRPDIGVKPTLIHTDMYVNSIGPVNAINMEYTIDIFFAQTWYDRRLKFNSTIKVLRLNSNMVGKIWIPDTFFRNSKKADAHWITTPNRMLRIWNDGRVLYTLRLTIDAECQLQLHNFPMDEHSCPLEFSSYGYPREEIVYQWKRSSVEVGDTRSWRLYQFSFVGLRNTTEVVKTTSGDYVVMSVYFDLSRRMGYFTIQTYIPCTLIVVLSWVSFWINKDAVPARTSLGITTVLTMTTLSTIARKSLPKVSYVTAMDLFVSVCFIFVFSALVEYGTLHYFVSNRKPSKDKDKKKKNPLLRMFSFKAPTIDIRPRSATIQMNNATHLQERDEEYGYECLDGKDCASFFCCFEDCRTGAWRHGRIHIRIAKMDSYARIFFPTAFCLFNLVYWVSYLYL
Chain of purified α1β3γ2L GABAA receptors (P14867 28-456): as the sequence (P14867 28-456) above
Chain of purified α1β3γ2L GABAA receptors (P28472 26-473): as the sequence (P28472 26-473) above
Chain of purified α1β3γ2L GABAA receptors (P18507 40-475): as the sequence (P18507 40-475) above

SMILES: Cc1ncc2n1-c1ccc(Cl)cc1C(c1ccccc1F)=NC2 [Midazolam]
- IC50 (α1β3γ2L GABAA receptors [1]): 560 µM

SMILES: CN1C(=O)CN=C(c2ccccc2)c2cc(Cl)ccc21 [Diazepam]
- reduction of GABA-activated peak current amplitudes at micromolar concentrations (α1β3γ2L GABAA receptors [2]; 6 μM GABA): did not see a similar reduction
- potentiation of currents activated by low concentrations of GABA via the etomidate binding site (GABAA receptor): no more than two- to threefold
- Schild slope (α1β3γ2L GABAA receptors [3]; against etomidate direct activation, flumazenil present (1:4)): 1.1
- effect on zebrafish larvae motor responses to light stimulus (zebrafish larvae; 50 μM, alone, no flumazenil): essentially abolishes

SMILES: CNC1(c2ccccc2Cl)CCCCC1=O (stereo not drawn) [ketamine]
- EC50 (zebrafish larvae): 170 µM
- fold leftward shift of anesthetic concentration-response curve (zebrafish larvae; by 50 μM diazepam plus 200 μM flumazenil): 19 fold

SMILES: CN1C(=O)CN=C(c2ccccc2F)c2cc(Cl)ccc21 [Fludiazepam]
- IC50 (α1β3γ2L GABAA receptors [1]): 390 µM
- etomidate inhibitory potency, fold lower than diazepam (α1β3γ2L GABAA receptors [1]; relative to diazepam): 30 ×

SMILES: CCOC(=O)c1ncn2c1CN(C)C(=O)c1cc(F)ccc1-2 [Flumazenil]
- effect on R-[3H]azietomidate photo-incorporation [4]: little inhibitory effect
- impact on GABA-activated currents in the absence of diazepam (α1β3γ2L GABAA receptors [2]; data not shown): no impact
- impact on etomidate-activated currents in the absence of diazepam (α1β3γ2L GABAA receptors [1]; data not shown): no impact

SMILES: CN1CCN=C(c2ccccc2)c2cc(Cl)ccc21 [Medazepam]
- IC50 (α1β3γ2L GABAA receptors [1]): ≥ 1000 µM

SMILES: O=C1CN=C(c2ccccc2)c2cc([N+](=O)[O-])ccc2N1 [Nitrazepam]
- IC50 (α1β3γ2L GABAA receptors [1]): 130 µM

SMILES: Clc1ccc2c(c1)C(c1ccccc1)=NCc1nncn1-2 [Estazolam]
- IC50 (α1β3γ2L GABAA receptors [1]): 59 µM

SMILES: O=C1Nc2ccc(Cl)cc2C(c2ccccc2Cl)=NC1O (stereo not drawn) [Lorazepam]
- IC50 (α1β3γ2L GABAA receptors [1]): ≥ 1000 µM

SMILES: CCOC(=O)c1cncn1[C@H](C)c1ccccc1 [etomidate]
- potentiation of currents activated by low concentrations of GABA (GABAA receptor; high concentrations): more than an order of magnitude
- Hill slope of etomidate concentration-response curve (α1β3γ2L GABAA receptors [3]; Schild analysis): 2.1
- EC50 (zebrafish larvae): 0.66 µM

SMILES: O=C1CN=C(c2ccccc2)c2cc(Cl)ccc2N1 [Nordiazepam]
- IC50 (α1β3γ2L GABAA receptors [1]): 32 µM

SMILES: CN1C(=O)CN=C(c2ccccc2F)c2cc([N+](=O)[O-])ccc21 [flunitrazepam]
- reduction in apparent affinity with purified GABAA receptors (purified GABAA receptors): sevenfold

From paper PMC7944240 (Anesthesiology, 2020)
